Source: US20060167229A1, “Biologically active peptide conjugates” (priority 2002, published 2006)
Marks after values point to notes of the source that are not given here. Ends that are not written are not given here.

How the values were obtained:
NK cell = NK cell activity in mice with ascitic fluid type liver cancer H22; assay type: in vivo, BALB/c mice; conditions: saline 24.0 ± 8.2
Description: Healthy BALB/c mice were randomised into peptide group, rmIFN-γ group, rhIL-2 group, and saline group, 15 mice per group, and prepared into H22 carrying mice model as described in section Method 3. After implantation of the cancer cells, the test substances were administered for 15 days, the mice were killed by cervical dislocation. The spleen was isolated aseptically and manually dispersed in cold D-Hank's solution using an injection needle. The dispersed cell suspension was further sieved through a 100-gauge 150 μm diameter stainless steel sieve. After centrifugation at 200 g for 10 minutes, the supernatant was discarded. The cell pellet was re-suspended in 10 volume of Tris-NH4Cl buffer and then kept standing still for 10 minutes at room temperature. The suspended cells were collected by centrifugation at 150 g for 10 minutes. The cells were washed 2-4 times with cold D-Hank's solution by re-suspending and collecting by centrifugation with condition as described above. The washed cells were then diluted to the desired cell densities by RPMI-1640 culture medium, containing 10% fetal bovine serum.
Mice spleen cells were prepared to 4×10^6/ml as described in section 4.1 above. Target cells YAC-1 were brought to log phase and adjusted to 1×10^5/ml. Using a 96 wells cell culture plate, 100 μl mouse spleen cells and 100 μl culture medium were added to the control well containing only the spleen cells; 100 μl target cells and 100 μl culture medium were added to the control well containing only target cells; 100 μl mouse spleen cells and 100 μl target cells were added to the NK activity assay well. Three parallel sets of the above were prepared per mouse. After that, the 96 wells cell culture plates were incubated for 4 hrs at 37° C., 5% CO2.
Samples were centrifuged at 150 g for 10 minutes to collect the cells. The supernatant was discarded and 50 μl/well MTT of 1 mg/ml was added. The reaction-mixture was then shaken for 2 minutes, and incubated at 37° C., 5% CO2 for 4 hours. The supernatant was discarded after centrifugation at 150 g for 10 minutes. 120 μl 40 mM HCl-2-propanol was added and shaken for 3 minutes. An ELISA reader was used to obtain OD570 nm of each well referenced at 630 nm.
The NK cell activity index of each mouse was obtained by first deriving the average OD of the three parallel wells of each combination, then applying this average OD to the following formula: NK cell activity index=[1−(average OD of spleen and target cell well−average OD of spleen cell only well)÷(average OD of target cell only well)]×100% 5. The Effect of Peptides on the Survival of DBA/2 Mice with Transplanted L1210 Leukemia

B16 melanoma = assay: Melanoma lung metastasis foci after inoculation of B16 melanoma cells; assay type: in vivo, C57BL/6 mice
Description: Intraperitoneal injection, once per day. […] Treatment of all groups with testing substance lasted for 30 days or until the animal died unless otherwise specified. […] The cell concentration was adjusted to 1×10^5 per ml with Hank's solution and 0.1 ml of the cell suspension was injected via the tail vein into the testing mice to generate the B16 melanoma bearing animal model. Treatment with test substance started as described in section Method 1. […] Postmortem Examination of the Animals was Performed. The Pathological Changes were Recorded, and the Numbers of Melanoma Lung Metastasis Foci Were Counted. Results

mononuclear phagocyte = assay: Phagocytotic function of mononuclear phagocyte in mice with transplanted S180 sarcoma; assay type: in vivo, BALB/c mice; conditions: saline 5.38 ± 0.85
Description: (§1) Intraperitoneal injection, once per day. […] Treatment of all groups with testing substance lasted for 30 days or until the animal died unless otherwise specified.
(§2) Stock S180 sarcoma cells were incubated in DMEM/F12 medium supplemented with 10% fetal bovine serum, 37° C., 5% CO2 for 72 hrs, then washed 3-4 times with Hank's solution at room temperature. Adjust the cell concentration to 1-2×10^9 per litre with Hank's solution. […] The mice were killed by cervical vertebra dislocation. Vigorously growing and non-disrupted tumor masses were harvested and washed clean with sterile saline. The tissue was dispersed in saline to a homogenous cell suspension, in a ratio of 1 g tissue to 4 ml saline. The sarcoma bearing mice model was prepared with an injection of 0.2 ml cell suspension through the armpit. Administration of test substance treatment started as described in section Method 1.
2.1 The effect of peptides on the phagocytotic function of mononuclear phagocyte in mice with S180 sarcoma was analysed by injecting mice from the tail vein with 0.1 ml/10 g body weight of Indian ink (1:5 dilution with normal saline) on the second day after the last test substance administration. At one minute and five minutes after the injection, 20 μl blood was obtained from the eye canthus with heparinised tubing. The blood was mixed with 2 ml 0.1% w/v Na2CO3 and then OD680 nm obtained. The outline clear index K was calculated by the following formula: K=(lgA1−lgA2)÷(t2−t1)
After the phagocytosis index study, the mice were killed by cervical vertebra dislocation. The liver, spleen, and cancer tissue were dissected, blotted dry, and weighed. The phagocytosis index a was calculated as below: α=(^3√{square root over ( )}K)×(W÷WLS)

S180 sarcoma = assay: Growth of transplanted S180 sarcoma; assay type: in vivo, BALB/c mice; conditions: for Tumor weight: saline 1.29 ± 0.50
Description: as §1, §2
2.2 The Tumor Growth Inhibition Index was Calculated According to the Following Formula: Tumor growth inhibition index=(mean tumor weight of control group−mean tumor weight of treatment group)÷mean tumor weight of control group 3.

[1] = dose 0.5 μg/kg i.p. once per day
[2] = dose 500 μg/kg i.p. once per day
[3] = controls: IL-2, IFN-γ 3 × 10^5 IU/kg, cyclophosphamide 20 mg/kg

Molecule: FNFVPP [CMS003]
- NK activity index (%) (NK cell; dose 500 μg/kg): 37.9 ± 14.5*^^$ %

Molecule: IGMESAGIHETTY [CMS016]
- B16 metastatic foci in the lung, postmortem examination (B16 melanoma; 5 μg/kg/day): did not show any sign of existence of B16 metastatic foci in the lung
- B16 metastatic foci in the lung, postmortem examination (B16 melanoma; 500 μg/kg/day): did not show any sign of existence of B16 metastatic foci in the lung

Molecule: KAVGHLDDLPGAL [CMS008]
- B16 metastatic foci in the lung, postmortem examination (B16 melanoma; 0.5 μg/kg/day): did not show any sign of existence of B16 metastatic foci in the lung
- B16 metastatic foci in the lung, postmortem examination (B16 melanoma; 5 μg/kg/day): did not show any sign of existence of B16 metastatic foci in the lung
- B16 metastatic foci in the lung, postmortem examination (B16 melanoma; 50 μg/kg/day): did not show any sign of existence of B16 metastatic foci in the lung

Molecule: PTTKTYFPHF [CMS001]
- Phagocytosis index (mononuclear phagocyte; dose 5 μg/kg i.p. once per day): 6.67 ± 0.43*^
- Phagocytosis index (mononuclear phagocyte; dose 50 μg/kg i.p. once per day): 6.24 ± 0.33*^

Molecule: Phe Gln Gln Gln (FQQQ; printed: Phe Gln Gln Gln) [CMS032]
- NK activity index (%) (NK cell; dose 5 μg/kg): 52.6 ± 12.5*^^$& %
- NK activity index (%) (NK cell; dose 50 μg/kg): 41.0 ± 18.7*^^$& %

Molecule: Phe Val Asn Asp (FVND; listed as Sus scrofa) [CMS035]
- Tumor inhibition index (%) (S180 sarcoma; dose 5 μg/kg i.p. once per day): 44.6%
- Tumor weight (S180 sarcoma; dose 5 μg/kg i.p. once per day): 0.71 ± 0.37 g

Molecule: Pro Gln Asn Phe (PQNF; printed: Pro Gln Asn Phe) [CMS034]
- Phagocytosis index (mononuclear phagocyte; [1]): 6.35 ± 1.02
- Phagocytosis index (mononuclear phagocyte; dose 5 μg/kg i.p. once per day): 6.20 ± 0.44*^
- NK activity index (%) (NK cell; dose 50 μg/kg): 57.3 ± 17.9*^^$& %
- Tumor inhibition index (%) (S180 sarcoma; [1]): 35.9%
- Tumor weight (S180 sarcoma; [1]): 0.83 ± 0.48 g

Molecule: Tyr Ser Leu (YSL; listed as Sus scrofa) [CMS024]
- NK activity index (%) (NK cell; dose 0.5 μg/kg): 39.3 ± 18.7*^$ %
- NK activity index (%) (NK cell; dose 5 μg/kg): 34.9 ± 12.1*^^$ %
- NK activity index (%) (NK cell; dose 50 μg/kg): 43.6 ± 13.9*^^$& %

Molecule: VAPEEHPTLLTEAPLNPK [CMS010]
- Tumor inhibition index (%) (S180 sarcoma; [2]): 48.4%
- Tumor weight (S180 sarcoma; [2]): 0.67 ± 0.35 g

B1: IFN-γ: recombinant mouse IFN-γ (rmIFN-γ), Beijing Biotech Inc.; positive control (protein, UniProt P01580 23-155, looked up)
Interferon gamma: HGTVIESLESLNNYFNSSGIDVEEKSLFLDIWRNWQKDGDMKILQSQIISFYLRLFEVLKDNQAISNNISVIESHLITTFFSNSKAKKDAFMSIAKFEVNNPQVQRQAFNELIRVVHQLLPESSLRKRKRSRC
- Phagocytosis index (mononuclear phagocyte; [3]): 5.45 ± 0.71
- NK activity index (%) (NK cell; [3]): 20.9 ± 3.3%
- Tumor inhibition index (%) (S180 sarcoma; [3]): 25.3%
- Tumor weight (S180 sarcoma; [3]): 0.96 ± 0.45 g
